Test results taken from US6977252B1, “Use of 1,4-benzothiazepine derivatives as drugs for overcoming resistance to anticancer drugs” (Noboru Kaneko, priority 1999, dated 2005).
Read-outs that look alike come from different tables or passages of the source.

Experiments:
[1] = system: GB-1 human glioblastoma cell and U87-GM cell; details: GB-1 cell and U87-GM cell; cited from earlier work
[2] = system: B16a cell and B16a-Pt cell line; details: B16a cell and cisplatin-resistant B16a-Pt cell line; cited from earlier work
[3] = system: KCP-4 cell isolated from human nasopharyngeal cancer KB cells; details: KCP-4 cisplatin-resistance cell; cited from earlier work
[4] = system: PC-14/CDDP cisplatin tolerant cell line; test: MTT cell growth inhibition by anticancer drug with or without compound 1, PC-14/CDDP; type: cell-based, human; details: for IC50: PC-14/CDDP, MTT, read-out: 50% cell growth inhibiting concentration (IC50) of anticancer drug
Procedure: (§1) PC-14 as a human non-small cell lung cancer cell line and PC-14/CDDP as a cisplatin tolerant cell line thereof were used to examine an effect of overcoming each resistance to cisplatin, carboplatin, nedaplatin and taxol. PC-14 and PC-14/CDDP were made into a single cell in BPMI 1640 medium by trypsinization or by using a cell scraper, and prepared a cell suspension of 100 cells per 15 μl. The compound 1 dissolved in dimethyl sulfoxide was added therein to make final concentration of 10 μm, and then the resulting liquid was poured into a 96-perforated plate at 150 μl per well. An anticancer drug was dissolved in sterilized distilled water. The resulting liquid of 150 μl per well was poured into the first row to transfer in turn from the second row to the next rows by 150 μl for each raw so as to form two-fold dilution rows. A group without the cells was prepared as a negative control, and a group without the anticancer drug and the compound I was prepared as a positive control. After culturing at 37° C. under carbon dioxide having a concentration of 5% and saturated vapor for 96 hours, an MTT [3-(4,5-dimethylthiazol-2-yl)-2,5-diphenyltetrazolium bromide] reagent of 20 μl dissolved in D-PBS (−) at a concentration of 5 mg/ml was added to each of the groups, and the resulting liquid was cultured for another 4 hours at 37° C. After the completion of the culture, the entire plate was centrifuged, and the supernatant was removed. Dimethyl sulfoxide of 200 μl was added to dissolve formazan crystal generated by enzyme activities of mitochondria in the cells. Then, absorbed light of 562–630 nm was determined by using a multiplate reader. Given that the average growth rate of the negative control is 0% and the average growth rate of the positive control is 100%, a dose-growth curve was plotted to calculate […] cell growth inhibiting concentration (IC50).

PC-14/CDDP tumor = test: Tumor growth in nude mice implanted with PC-14/CDDP; type: in vivo, nude mice BALB/c nu/nu; details: for lowest T/C / Tumor growth rate GR: PC-14/CDDP; for Tumor growth rate GR: 11th
Procedure: (§2) Female nude mice BALB/c nu/nu (6-week-old) were implanted subcutaneously in each back with 2×10^7 of PC-14/CDDP and the parental cell line PC-14 suspended in physiological saline, then the progress of tumor were observed. On the 7th day from the implantation, tumor condition was checked to select and randomize testable individuals not to cause any deviation, and the selected mice were then divided into a control group and a test group. After each tumor volume was determined based on the formula: (tumor short diameter)^2×(tumor long diameter), administration of drug was started on the seventh day.
(§3) The compound 1 was used as a test compound, 1.2 mg of which was dissolved in 0.05 ml of dimethyl sulfoxide, and then combined with 0.95 ml of 5% sorbitol-0.2% citric acid 1 hydrate solution (pH3.3) to make uniform solution.
(§4) Cisplatin was used as an anticancer drug, and was dissolved in distilled water to prepare 1.6 mg/ml solution.
(§5) The administration process is carried out by simultaneous intravenous injections of 0.05 ml of the test compound and 0.05 ml of the anticancer-drug solution once a day on the 7th, 11th, 15th day after the tumor implantation. For the control group, 0.1 ml of physiological saline was administered by intravenous injection, and for the group to be administered only the anticancer drug, 0.05 ml of the anticancer-drug solution and 0.05 ml of physiological saline were administered by intravenous injection. One dose of the test compound was 3 mg/kg, and one dose of the anticancer drug was 4 mg/kg. During the administration of the drug, physical status of the whole body of the mice was observed, and the weight and the long/short lengths of tumor were measured. Tumor growth rate (GR) and effect of inhibiting cancer (lowest T/C) were calculated based on the following formulas, respectively. [formula] [formula]

[5] = system: PC-14 human non-small cell lung cancer cell line; test: MTT cell growth inhibition by anticancer drug with or without compound 1, PC-14; type: cell-based; details: read-out: 50% cell growth inhibiting concentration (IC50) of anticancer drug
Procedure: as §1

PC-14 tumor = test: Tumor growth in nude mice implanted with PC-14; type: in vivo, nude mice BALB/c nu/nu; details: for Tumor growth rate GR: 11th
Procedure: as §2, §3, §4, §5

[6] = system: K562/ADM adriamycin resistant cell line; test: MTT cell growth inhibition by adriamycin with or without compound 1, K562/ADM; type: cell-based, human; details: for IC50: Homo sapiens, K562, K562/ADM, read-out: 50% cell growth inhibiting concentration (IC50) of adriamycin
Procedure: as §1
K562 as a human […] cell line and K562/ADM as an adriamycin resistant cell line thereof were used to examine the effect of overcoming the resistance to adriamycin. […]

[7] = system: K562 human promyelocytic leukemia cell line; test: MTT cell growth inhibition by adriamycin with or without compound 1, K562; type: cell-based
Procedure: PC-14 as a human non-small cell lung cancer cell line and PC-14/CDDP as a cisplatin tolerant cell line thereof were used to examine an effect of overcoming each resistance to cisplatin, carboplatin, nedaplatin and taxol. PC-14 and PC-14/CDDP were made into a single cell in BPMI 1640 medium by trypsinization or by using a cell scraper, and prepared a cell suspension of 100 cells per 15 μl. The compound 1 dissolved in dimethyl sulfoxide was added therein to make final concentration of 10 μm, and then the resulting liquid was poured into a 96-perforated plate at 150 μl per well. An anticancer drug was dissolved in sterilized distilled water. The resulting liquid of 150 μl per well was poured into the first row to transfer in turn from the second row to the next rows by 150 μl for each raw so as to form two-fold dilution rows. A group without the cells was prepared as a negative control, and a group without the anticancer drug and the compound I was prepared as a positive control. […] Then, absorbed light of 562–630 nm was determined by using a multiplate reader. […]

[8] = with compound 1 (final concentration 10 μm), 96 hours
[9] = PC-14, with compound 1 (final concentration 10 μm), 96 hours
[10] = PC-14, without compound 1, 96 hours

Question: For `COc1ccc(CCN(C)CCCC(C#N)(c2ccc(OC)c(OC)c2)C(C)C)cc1OC` (centres unmarked) [verapamil], which “drugs that enhance any significant antitumor effect of cisplatin” value [1] is on record?
Answer: none

Question: And the “enhancement of antitumor effect of cisplatin” value (shortened to “enhancement”) [2]?
Answer: do not exhibit any significant enhanced antitumor effect

Question: What does the source list for `N.N.[Cl][Pt][Cl]` [cisplatin]?
Answer: resistance of KCP-4 cell to cisplatin [3]: about 63 fold; IC50 [4, 8]: 2.16 ± 1.12 µM; IC50 ([4]; without compound 1, 96 hours): 18.6 ± 2.83 µM; lowest T/C (PC-14/CDDP tumor; 11th day, cisplatin 4 mg/kg i.v. with compound 1 3 mg/kg i.v.): 9.81%; lowest T/C (PC-14/CDDP tumor; 11th day, cisplatin 4 mg/kg i.v., without compound 1): 20.64%; lowest T/C (PC-14/CDDP tumor; 15th day, cisplatin 4 mg/kg i.v. with compound 1 3 mg/kg i.v.): 2.36%; lowest T/C (PC-14/CDDP tumor; 15th day, cisplatin 4 mg/kg i.v., without compound 1): 8.47%; Tumor growth rate GR (PC-14/CDDP tumor; cisplatin 4 mg/kg i.v. on 7th, 15th day, without compound 1): 478.43%; Tumor growth rate GR (PC-14/CDDP tumor; cisplatin 4 mg/kg i.v. with compound 1 3 mg/kg i.v. on 7th, 15th day): 190.52%; IC50 [5, 9]: 1.77 ± 0.89 µM; IC50 [5, 10]: 2.4 ± 1.05 µM; lowest T/C (PC-14 tumor; 11th day, PC-14, cisplatin 4 mg/kg i.v. with compound 1 3 mg/kg i.v.): 9.76%; lowest T/C (PC-14 tumor; 11th day, PC-14, cisplatin 4 mg/kg i.v., without compound 1): 13.33%; lowest T/C (PC-14 tumor; 15th day, PC-14, cisplatin 4 mg/kg i.v. with compound 1 3 mg/kg i.v.): 6.75%; lowest T/C (PC-14 tumor; 15th day, PC-14, cisplatin 4 mg/kg i.v., without compound 1): 10.52%; Tumor growth rate GR (PC-14 tumor; PC-14, cisplatin 4 mg/kg i.v. on 7th, 15th day, without compound 1): 874.30%; Tumor growth rate GR (PC-14 tumor; PC-14, cisplatin 4 mg/kg i.v. with compound 1 3 mg/kg i.v. on 7th, 15th day): 753.32%

Question: For `[NH2][Pt]1([NH2])[O]CC(=O)[O]1` [nedaplatin], which IC50 [4, 8] is on record?
Answer: 4.16 ± 1.28 µM

Question: What about the IC50 ([4]; without compound 1, 96 hours) of the same molecule?
Answer: 25.9 ± 8.12 µM

Question: What about the IC50 [5, 9] of the same molecule?
Answer: 4.36 ± 1.53 µM

Question: And the IC50 [5, 10]?
Answer: 7.1 ± 1.53 µM

Question: What does the source list for `CC(=O)O[C@H]1C(=O)[C@@]2(C)[C@H]([C@H](OC(=O)c3ccccc3)[C@]3(O)C[C@H](OC(=O)[C@H](O)[C@@H](NC(=O)c4ccccc4)c4ccccc4)C(C)=C1C3(C)C)[C@]1(OC(C)=O)CO[C@@H]1C[C@@H]2O` [taxol]?
Answer: IC50 ([4]; Homo sapiens, PC-14, 96 h, with compound 1 (final concentration 10 μm), 96 hours): 1.73 µM; IC50 ([4]; Homo sapiens, PC-14, 96 h, without compound 1, 96 hours): 5.29 µM; IC50 ([5]; Homo sapiens, PC-14, 96 h, PC-14, with compound 1 (final concentration 10 μm), 96 hours): 0.000663 µM; IC50 ([5]; Homo sapiens, PC-14, 96 h, PC-14, without compound 1, 96 hours): 0.00113 µM

Question: What does the source list for `COc1ccc2c(c1)CN(C(=O)CCN1CCC(Cc3ccccc3)CC1)CCS2` [compound 1, 4-[3-(4-benzylpiperidine-1-yl)propionyl]-7-methoxy-2,3,4,5-tetrahydro-1,4-benzothiazepine]?
Answer: effect on resistance and sensitivity to anticancer drugs ([4]; cisplatin resistant lung cancer cell line PC-14/CDDP, compound 1 at 10 μm): shows the effect of reducing the resistance to and increasing the sensitivity to cisplatin, carboplatin, nedaplatin and taxol; effect of inhibiting tumor growth together with cisplatin (PC-14/CDDP tumor; nude mice with PC-14/CDDP, compound 1 3 mg/kg with cisplatin 4 mg/kg i.v.): the effect of inhibiting tumor growth in the cisplatin resistant cancer cell line (PC-14/CDDP) was exhibited; effect on resistance and sensitivity to adriamycin ([6]; adriamycin resistant cell line K562/ADM): shows the effect of reducing the resistance to and increasing the sensitivity to adriamycin

Question: For `N.N.O=C([O-])C1(C(=O)[O-])CCC1.[Pt+2]` [carboplatin], which IC50 [4, 8] is on record?
Answer: 26.1 ± 7.78 µM

Question: And the IC50 ([4]; without compound 1, 96 hours)?
Answer: 143 ± 39.1 µM

Question: And the IC50 [5, 9]?
Answer: 29.5 ± 11.3 µM

Question: And the IC50 [5, 10]?
Answer: 37.1 ± 10.8 µM

Question: For `COc1ccc([C@@H]2Sc3ccccc3N(CCN(C)C)C(=O)[C@@H]2OC(C)=O)cc1` [diltiazem], which “drugs that enhance any significant antitumor effect of cisplatin” value [1] is on record?
Answer: none

Question: And the “enhancement” value [2]?
Answer: do not exhibit any significant enhanced antitumor effect

Question: For `COc1cccc2c1C(=O)c1c(O)c3c(c(O)c1C2=O)C[C@@](O)(C(=O)CO)C[C@@H]3O[C@H]1C[C@H](N)[C@H](O)[C@H](C)O1` [adriamycin], which IC50 ([6]; with compound 1, n = 1) is on record?
Answer: 0.166 µM

Question: And the IC50 ([6]; without compound 1, n = 1)?
Answer: 1.15 µM

Question: And the IC50 ([7]; K562, K562, with compound 1, n = 1, read-out: 50% cell growth inhibiting concentration (IC50) of adriamycin)?
Answer: 0.004 µM

Question: And the IC50 ([7]; K562, K562, without compound 1, n = 1, read-out: 50% cell growth inhibiting concentration (IC50) of adriamycin)?
Answer: 0.008 µM

Question: With `Clc1ccc(C(c2ccc(Cl)cc2)[n+]2ccn(CC(OCc3ccc(Cl)cc3Cl)c3ccc(Cl)cc3Cl)c2)cc1.[Cl-]` (centres unmarked) [calmidazilium] as the molecule, how does the “enhancement” value [2] read?
Answer: do not exhibit any significant enhanced antitumor effect

Question: For `COC(=O)C1=C(C#N)NC(C)=C(C(=O)OC(C)C)C1c1cccc([N+](=O)[O-])c1` (centres unmarked) [nilvadipine], which “drugs that enhance any significant antitumor effect of cisplatin” value [1] is on record?
Answer: none

Question: For `COC(=O)C1=C(C)NC(C)=C(C(=O)OC2CCCN(Cc3ccccc3)C2)C1c1cccc([N+](=O)[O-])c1` (centres unmarked) [benidipine], which “drugs that enhance any significant antitumor effect of cisplatin” value [1] is on record?
Answer: none

Question: With `CN1CCN(CCCN2c3ccccc3Sc3ccc(C(F)(F)F)cc32)CC1` [trifluoperazine] as the molecule, how does the “enhancement” value [2] read?
Answer: do not exhibit any significant enhanced antitumor effect
